ChEMBL document CHEMBL1201862, “PubChem BioAssay data set” (2004)
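All cell lines were grown in 96-well plates and treated with compound for 48 hours. GI50 marks 50% less growth.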 Activity calls are given as the source filed them. Cut-off read from the data, not from the text of the source: active = GI50 up to about 1.1 µM and inactive = higher.

Key:
Assay in all cases: growth of human tumour cells (NCI), 48 h
786-0 = test system: 786-0
A498 = test system: A498
A549 = test system: A549
ACHN = test system: ACHN
BT-549 = test system: BT-549
CAKI-1 = test system: CAKI-1
CCRF-CEM = test system: CCRF-CEM
COLO 205 = test system: COLO 205
DU-145 = test system: DU-145
EKVX = test system: EKVX
HCC 2998 = test system: HCC 2998
HCT-116 = test system: HCT-116
HCT-15 = test system: HCT-15
HL-60 = test system: HL-60
HOP-62 = test system: HOP-62
HT-29 = test system: HT-29
Hs-578T = test system: Hs-578T
IGROV-1 = test system: IGROV-1
K562 = test system: K562
KM12 = test system: KM12
LOX IMVI = test system: LOX IMVI
M14 = test system: M14
MCF7 = test system: MCF7
MDA-MB-435 = test system: MDA-MB-435
MDA-N = test system: MDA-N
MOLT-4 = test system: MOLT-4
Malme-3M = test system: Malme-3M
NCI-H226 = test system: NCI-H226
NCI-H23 = test system: NCI-H23
NCI-H460 = test system: NCI-H460
NCI-H522 = test system: NCI-H522
NCI/ADR-RES = test system: NCI/ADR-RES
OVCAR-3 = test system: OVCAR-3
OVCAR-4 = test system: OVCAR-4
OVCAR-5 = test system: OVCAR-5
OVCAR-8 = test system: OVCAR-8
PC-3 = test system: PC-3
RPMI-8226 = test system: RPMI-8226
RXF 393 = test system: RXF 393
SF-268 = test system: SF-268
SF-295 = test system: SF-295
SF-539 = test system: SF-539
SK-MEL-28 = test system: SK-MEL-28
SK-MEL-2 = test system: SK-MEL-2
SK-MEL-5 = test system: SK-MEL-5
SN12C = test system: SN12C
SNB-19 = test system: SNB-19
SNB-75 = test system: SNB-75
SR = test system: SR
SW-620 = test system: SW-620
T47D = test system: T47D
TK-10 = test system: TK-10
U-251 = test system: U-251
UACC-257 = test system: UACC-257
UACC-62 = test system: UACC-62
UO-31 = test system: UO-31
HOP-92 = test system: HOP-92
MDA-MB-231 = test system: MDA-MB-231
SK-OV-3 = test system: SK-OV-3

Compound: O=c1[nH]nc(Cc2ccc([N+](=O)[O-])cc2)[nH]1
- GI50 (786-0): > 100 µM (inactive)
- GI50 (A498): > 100 µM (inactive)
- GI50 (A549): > 100 µM (inactive)
- GI50 (ACHN): > 100 µM (inactive)
- GI50 (BT-549): > 100 µM (inactive)
- GI50 (CAKI-1): > 100 µM (inactive)
- GI50 (CCRF-CEM): > 100 µM (inactive)
- GI50 (COLO 205): > 100 µM (inactive)
- GI50 (DU-145): > 100 µM (inactive)
- GI50 (EKVX): 54.6 µM (inactive)
- GI50 (HCC 2998): > 100 µM (inactive)
- GI50 (HCT-116): > 100 µM (inactive)
- GI50 (HCT-15): > 100 µM
- GI50 (HL-60): > 100 µM (inactive)
- GI50 (HOP-62): > 100 µM (inactive)
- GI50 (HT-29): > 100 µM (inactive)
- GI50 (Hs-578T): 75 µM (inactive)
- GI50 (IGROV-1): > 100 µM (inactive)
- GI50 (K562): > 100 µM (inactive)
- GI50 (KM12): > 100 µM (inactive)
- GI50 (LOX IMVI): > 100 µM (inactive)
- GI50 (M14): > 100 µM (inactive)
- GI50 (MCF7): > 100 µM (inactive)
- GI50 (MDA-MB-435): > 100 µM (inactive)
- GI50 (MDA-N): > 100 µM (inactive)
- GI50 (MOLT-4): > 100 µM (inactive)
- GI50 (Malme-3M): > 100 µM (inactive)
- GI50 (NCI-H226): > 100 µM (inactive)
- GI50 (NCI-H23): > 100 µM (inactive)
- GI50 (NCI-H460): > 100 µM (inactive)
- GI50 (NCI-H522): > 100 µM (inactive)
- GI50 (NCI/ADR-RES): > 100 µM (inactive)
- GI50 (OVCAR-3): > 100 µM (inactive)
- GI50 (OVCAR-4): > 100 µM (inactive)
- GI50 (OVCAR-5): > 100 µM (inactive)
- GI50 (OVCAR-8): > 100 µM (inactive)
- GI50 (PC-3): > 100 µM (inactive)
- GI50 (RPMI-8226): > 100 µM (inactive)
- GI50 (RXF 393): > 100 µM (inactive)
- GI50 (SF-268): > 100 µM (inactive)
- GI50 (SF-295): > 100 µM (inactive)
- GI50 (SF-539): > 100 µM (inactive)
- GI50 (SK-MEL-28): > 100 µM (inactive)
- GI50 (SK-MEL-2): > 100 µM (inactive)
- GI50 (SK-MEL-5): > 100 µM (inactive)
- GI50 (SN12C): > 100 µM (inactive)
- GI50 (SNB-19): > 100 µM (inactive)
- GI50 (SNB-75): > 100 µM (inactive)
- GI50 (SR): > 100 µM (inactive)
- GI50 (SW-620): > 100 µM (inactive)
- GI50 (T47D): > 100 µM (inactive)
- GI50 (TK-10): > 100 µM (inactive)
- GI50 (U-251): > 100 µM (inactive)
- GI50 (UACC-257): > 100 µM (inactive)
- GI50 (UACC-62): > 100 µM (inactive)
- GI50 (UO-31): 52.5 µM (inactive)

Compound: C=CCN(c1cc(OCc2ccccc2)c2c(c1)c(C)cn2S(=O)(=O)c1ccccc1)S(C)(=O)=O
- GI50 (786-0): > 100 µM (inactive)
- GI50 (A549): > 100 µM (inactive)
- GI50 (ACHN): > 100 µM (inactive)
- GI50 (BT-549): > 100 µM (inactive)
- GI50 (CAKI-1): > 100 µM (inactive)
- GI50 (CCRF-CEM): > 100 µM (inactive)
- GI50 (COLO 205): > 100 µM (inactive)
- GI50 (DU-145): > 100 µM (inactive)
- GI50 (EKVX): > 100 µM (inactive)
- GI50 (HCC 2998): > 100 µM (inactive)
- GI50 (HCT-116): > 100 µM (inactive)
- GI50 (HCT-15): > 100 µM
- GI50 (HL-60): > 100 µM (inactive)
- GI50 (HOP-62): > 100 µM (inactive)
- GI50 (HOP-92): > 100 µM (inactive)
- GI50 (HT-29): > 100 µM (inactive)
- GI50 (Hs-578T): > 100 µM (inactive)
- GI50 (IGROV-1): > 100 µM (inactive)
- GI50 (K562): > 100 µM (inactive)
- GI50 (KM12): > 100 µM (inactive)
- GI50 (LOX IMVI): > 100 µM (inactive)
- GI50 (M14): > 100 µM (inactive)
- GI50 (MDA-MB-231): > 100 µM (inactive)
- GI50 (MDA-MB-435): > 100 µM (inactive)
- GI50 (MDA-N): > 100 µM (inactive)
- GI50 (MOLT-4): > 100 µM (inactive)
- GI50 (Malme-3M): > 100 µM (inactive)
- GI50 (NCI-H226): > 100 µM (inactive)
- GI50 (NCI-H23): > 100 µM (inactive)
- GI50 (NCI-H460): > 100 µM (inactive)
- GI50 (NCI-H522): > 100 µM (inactive)
- GI50 (NCI/ADR-RES): > 100 µM (inactive)
- GI50 (OVCAR-3): > 100 µM (inactive)
- GI50 (OVCAR-4): > 100 µM (inactive)
- GI50 (OVCAR-5): > 100 µM (inactive)
- GI50 (OVCAR-8): > 100 µM (inactive)
- GI50 (PC-3): > 100 µM (inactive)
- GI50 (RPMI-8226): > 100 µM (inactive)
- GI50 (RXF 393): > 100 µM (inactive)
- GI50 (SF-268): > 100 µM (inactive)
- GI50 (SF-295): > 100 µM (inactive)
- GI50 (SF-539): > 100 µM (inactive)
- GI50 (SK-MEL-28): > 100 µM (inactive)
- GI50 (SK-MEL-2): > 100 µM (inactive)
- GI50 (SK-MEL-5): > 100 µM (inactive)
- GI50 (SK-OV-3): > 100 µM (inactive)
- GI50 (SN12C): > 100 µM (inactive)
- GI50 (SNB-19): > 100 µM (inactive)
- GI50 (SNB-75): > 100 µM (inactive)
- GI50 (SR): > 100 µM (inactive)
- GI50 (SW-620): > 100 µM (inactive)
- GI50 (T47D): > 100 µM (inactive)
- GI50 (TK-10): > 100 µM (inactive)
- GI50 (U-251): > 100 µM (inactive)
- GI50 (UACC-257): > 100 µM (inactive)
- GI50 (UACC-62): > 100 µM (inactive)
